Test results reported in patent publication US20220264883A1, “IMIDAZOTHIAZOLE COMPOUNDS AND METHODS FOR TREATING PLANT NEMATODE INFECTIONS” (The Governing Council of the University of Toronto, priority 2019, published 2022).
pIC50: −log10 of the molar value. “And” between values parts separate entries of the source, which are not always exact repeats. Equal entries are not always repeated.

What was measured:
M. incognita = assay: Meloidogyne incognita infectivity assays (tomato roots in soil); type: in vivo; conditions: 45 μM in soil, 8 weeks, eggs per mg root relative to DMSO control
Protocol: (§1) An M. incognita population originally collected from grape (Vitis vinifera) in Parlier, Calif., was used for all experiments, and they were maintained on tomato plants (Solanum lycopersicum ‘Rutgers’) as previously described^73. Infective J2 juveniles were collected as described in^73. For the infectivity assays, 90 grams of soil (1:1 sand:loam mix) was added to each cell of several 6-cell plastic garden packs. The soil was drenched with 18 mL of deionized water containing dissolved chemical or DMSO alone. 2,500 infective J2 juveniles were then added to the soil in 2 mL of deionized water, for a total water volume of 20 mL. The final concentration of the chemicals in water was 45 μM. The DMSO concentration varied from 0.1% to 0.8% (v/v) depending on the stock concentration of the chemical. The highest DMSO concentration was used as the DMSO control. The J2s were incubated in the soil and chemical for 24 hours, after which two- to three-week old tomato seedlings were transplanted into the soil (one plant per cell). Two replicates were performed for each chemical treatment, and four replicates were done for the DMSO controls. The whole experiment was replicated twice, in two different batches on two different days, for a total of four replicates for each chemical treatment, and eight replicates for the DMSO controls. Inoculated plants were grown for 8 weeks in a greenhouse, as described^73, under long-day conditions (16-h photoperiod) with 26/18° C. day/night temperatures. After 8 weeks, the plants were destructively harvested. The tops were removed and discarded, and roots were gently washed with water to remove adhering soil. Eggs were extracted by placing rinsed roots in 0.6% sodium hypochlorite and agitating at 300 rpm for 3 min. Roots were then rinsed over nested 250- and 25.4-μm sieves, with eggs collected from the latter and suspended in water. Roots were dried in a 65° C. oven for at least 24 hours, after which dry roots were weighed. The number of eggs from each plant root was counted on a dissection microscope using a haemocytometer, and the number of eggs per milligram of root was calculated by dividing the total egg number by the mass of the dried root material. An average was taken across the replicates performed on the same day, and then normalized to the DMSO control average. To calculate percent effectiveness at inhibiting reproduction, the normalized values were subtracted from 1, and then multiplied by 100. An average percent effectiveness value was then calculated across the two different batches carried out on different days.

tomato plants = assay: Root mass of tomato plants in the infectivity assays; type: in vivo, Solanum lycopersicum; conditions: 45 μM
Protocol: as §1

C. elegans [1] = assay: C. elegans minimum lethal concentration dose-response; type: in vivo, Caenorhabditis elegans; conditions: for minimal effective concentration: Caenorhabditis elegans, C. elegans viability
Protocol: (§2) Forty microliters of an HB101 bacterial suspension in liquid NGM (see above) was added to each well of a 96-well flat-bottom culture plate, after which approximately 25 synchronized L1 worms, in 10 μl of M9 buffer (see ref. 59 for the recipe), were added to each well. The synchronized L1 worms were obtained from an embryo preparation performed the previous day (see ref. 59 for the protocol). For the L1 assays, 0.5 μl of chemical solution (or DMSO alone) was immediately added to the wells using a multichannel pipette, the final DMSO concentration is 1% (v/v). The worms were incubated for 3 days at 20° C. and the number of viable animals was counted. […] Although the counts were performed after 3 days of incubation in the chemical, it was noted that the L1s were dead within 24 hours of the addition of the chemicals. For the L2/L3 assays, the worms were incubated in the absence of chemical for 1 day at 20° C. until they reached the L2/L3 stage, at which point chemical was added as described above. The worms were then allowed to incubate for 2 days at 20° C. and the number of viable animals was counted as described for the L1 assay. For the L4 assays, the worms were incubated for 2 days at 20° C. before the addition of chemicals. The L4-stage worms were then incubated in chemical for an additional day before quantifying the number of viable animals. The adult assays were performed the same way as the L4 assays, however HT115 E. coli carrying the empty dsRNA expressing vector L4440 was used in place of HB101 and the worms were cultured at 25° C. as opposed to 20° C. for the entirety of the experiment. The HT115 suspension was made by concentrating a bacterial culture, with an OD600 of ˜ 0.8, five-fold with liquid NGM containing 1 mM IPTG and 100 μg/ml carbenicillin. The HT115 cells were induced with 1 mM IPTG for one hour before concentrating with NGM.
Compounds Ia to Im, dose-response assays were performed with C. elegans. 8 of the compounds killed C. elegans with minimum lethal concentrations less than or equal to 100 μM (Table 6). Compounds Ia, Ic, and Ij were the most potently lethal nematicides in this assay, having minimum lethal concentrations of 6.25 μM and below. The positive control nematicide tioxazafen killed nematodes at 3.13 μM and above.

[2] = test system: M. incognita infective juveniles; assay: Meloidogyne incognita dose-response experiments (infective J2 juveniles, FIG. 2); type: in vivo; conditions: 5, 15, 45 micromolar; third day after water rinse
Protocol: M. incognita (Kofoid & White) Chitwood Race 1 (originally isolated in Maryland) was used for all experiments, and were maintained on pepper (Capsicum annuum L.) cv. PA-136 in a greenhouse as previously described^64. Infective J2 juveniles were collected as described in ref. 65. The microwell dose-response experiments were carried out similarly to previously described protocols^64, 66. In brief, 100 J2 s, in 10 μL of deionized water, were added to the wells of 96-well polystyrene plates, after which 190 μL of deionized water containing dissolved chemical, or DMSO alone, was added to each well. The final concentration of DMSO in each well was 0.5% (v/v), except for the water only control which contained no DMSO and no added chemicals. The final concentrations of the chemicals for each dose-response experiment were 5, 15, and 45 μM. The wells were covered with a plastic adhesive strip, and the lids of the plates were sealed with parafilm. The plates were incubated at 25° C. The fraction of active worms was quantified by counting the number of mobile and immobile worms after 1 and 2 days of incubation, and then dividing the number of mobile worms by the total number of worms in the well. After 2 days of incubation, the chemicals were removed and replaced with deionized water (i.e. the water rinse) and the fraction of active worms was quantified 1 day later. A failure of the worms to recover after rinsing with water is consistent with them having been killed by the chemical treatment. Four technical replicates were performed for each treatment.

Arabidopsis thaliana = Arabidopsis thaliana greening experiments; type: in vivo; conditions: 5, 15 and 45 micromolar, greening after 4 days
Protocol: Greening experiments were performed with Arabidopsis thaliana seeds of wild type Col-0; seeds were surface sterilized in bleach and plated onto 0.5×MS, 0.5% sucrose agar medium supplemented with compounds of interest at 5, 15 and 45 μM concentrations. After 4 d of stratification at 4° C., plates were transferred to a growth chamber (16 h/8 h, 150 μE/m^2) and greening recorded after 4 days. Pictures were recorded by camera (SONY a7s) with FE1.8/55 lens (FE 55 mm F1.8 ZA; SEL55F18Z). Experiments were performed in triplicate for each treatment.

M. incognita J2 larvae = assay: Meloidogyne incognita in vitro assays (J2 movement); type: in vivo; conditions: 45 μM, 2 days, relative to DMSO control
Protocol: (§3) M. incognita (Kofoid & White) Chitwood Race 1 (originally isolated in Maryland) was used for all experiments, and was maintained on pepper (Capsicum annuum L.) cv. PA-136 in a greenhouse as previously described^64. Infective J2 juveniles were collected as described in ref.65. The microwell dose-response experiments were carried out similarly to previously described protocols^64, 66. In brief, 100 J2s, in 10 μL of deionized water, were added to the wells of 96-well polystyrene plates, after which 190 μL of deionized water containing dissolved chemical, or DMSO alone, was added to each well. The chemicals were tested at 45 μM, and the final concentration of DMSO in each well was 0.5% (v/v). The wells were covered with a plastic adhesive strip, and the lids of the plates were sealed with parafilm. The plates were incubated at 25° C. The mobile fraction of worms was quantified by counting the number of mobile and immobile worms after 2 days of incubation, and then dividing the number of mobile worms by the total number of worms in the well. Three technical replicates were performed for each treatment, and an average value for the mobile fraction of worms was calculated across the three replicates. The percent effectiveness at inhibiting nematode movement was calculated by dividing the average value for the chemical treatment by the average value for the DMSO control, then subtracting this value from 1, and then multiplying by 100.

M. chitwoodi = assay: Root-knot nematode M. chitwoodi mobility (Table 3); type: in vivo, Meloidogyne chitwoodi; conditions: 45 μM, 2 days of chronic exposure
Protocol: as §3
(§4) M. chitwoodi race 1 (the strain commonly found in the pacific northwest of the United States) was used for all experiments, and was maintained on tomato plants (Solanum lycopersicum ‘Rutgers’) as previously described^73. The M. chitwoodi in vitro assays were performed identically to the M. incognita in vitro assays (see above).
(§5) The ability of exemplary compounds of the application to kill C. elegans at 100 μM (except for compound If which was tested at 50 μM) and to affect the mobility of M. chitwoodi at 45 μM was tested as described above for M. incognita infective juveniles. Percent mobility was measured after 2 days of chronic exposure to test compounds (Table 3).

C. elegans [3] = assay: C. elegans viability at a single concentration (Table 3); type: in vivo; conditions: Caenorhabditis elegans; 100 μM
Protocol: as §2, §5

HepG2 cells = assay: HepG2 cell proliferation assay; type: cell-based, human; conditions: for pIC50: Alamar Blue
Protocol: HepG2 cells, which are liver-derived, were counted using a haemocytometer, diluted, and seeded in […] to a final density of 5×10^4 cells/mL in 100 uL of RPMI-1640 medium supplemented with 10% heat inactivated fetal bovine serum (Gibco) and 1.2×Antibiotic-Antimycotic (Gibco). Cells were incubated at 37° C. with 5% CO2 for 24 hours. Subsequently, a 2-fold dilution series of test compound was added to cells at a final volume of 200 uL and incubated at 37° C. with 5% CO2 for 72 hours. After 72 hours, Alamar Blue (Invitrogen) was added to the Hep G2 cells at a final concentration of 0.5× and plates were incubated at 37° C. for 4 hours. Fluorescence was measured at Ex560 nm/Em590 nm and corrected for background from the medium. All assays were performed in technical triplicates and in at least two biological replicates. The IC50 value was defined as the concentration that inhibits cell proliferation by 50% of the untreated control cells.

M. chitwoodi J2 larvae = assay: Meloidogyne chitwoodi in vitro assays (J2 movement); type: in vivo; conditions: 45 μM, 2 days, relative to DMSO control
Protocol: as §3, §4

Structure (SMILES) | % effectiveness at inhibiting reproduction of M. incognita (M. incognita) [%] | Normalized root mass (relative to DMSO control) (tomato plants) | minimal effective concentration (C. elegans [1]) | nematicidal activity on M. incognita infective juveniles [2] | effect on health and greening of Arabidopsis thaliana plants (phytotoxicity) (Arabidopsis thaliana) | % effectiveness at reducing M. incognita movement (M. incognita J2 larvae) [%] | RKN mobility (M. chitwoodi) [%] | viability at 100 µM (C. elegans [3]) [%] | pIC50 (HepG2 cells; 72 hours) | times more potent at killing C. elegans than compound Ig (C. elegans [1]; ratio of minimum lethal concentrations) | % effectiveness at reducing M. chitwoodi movement (M. chitwoodi J2 larvae) [%] | HepG2 IC50 (HepG2 cells; 72 hours, approximate ppm equivalent) [ppm] | pIC50 (HepG2 cells; Homo sapiens, HepG2, 72 hours)
Cc1csc2nc(-c3ccc(Br)cc3)cn12 [Compound Il, 6-(4-bromophenyl)-3-methylimidazo[2,1-b]thiazole] | 8.1 | 1.4 | 25 µM and 7.3 µg/mL | – | – | – | – | – | – | – | – | – | –
O=C(NCCc1ncc(C(F)(F)F)cc1Cl)c1ccccc1C(F)(F)F [fluopyram, reference compound] | – | – | – | most potent compound tested | phytotoxic at 15 and 45 micromolar | – | – | – | – | – | – | – | –
Cc1cn2cc(-c3ccc(F)cc3)nc2s1 [Ii] | – | – | > 100 µM and > 23.2 µg/mL | – | – | 0.0 | 28.9 | 100 | – | – | – | – | –
Cc1cn2cc(-c3ccc(Br)cc3)nc2s1 [Compound Im, 6-(4-bromophenyl)-2-methylimidazo[2,1-b]thiazole] | 1.2 | 1.1 | > 100 µM and > 29.3 µg/mL | – | – | – | – | – | – | – | – | – | –
Cc1csc2nc(-c3ccc(F)cc3)cn12 [Compound Ik, 6-(4-fluorophenyl)-3-methylimidazo[2,1-b]thiazole] | 0.6 | 1.0 | 50 µM and 11.6 µg/mL | – | – | – | – | – | – | – | – | – | –
c1ccc(-c2noc(-c3cccs3)n2)cc1 [tioxazafen, reference compound] | 43.7 | 1.1 | – | – | phytotoxic at 15 and 45 micromolar | 55.5 | – | – | < 4.00 | more than 32 times | 40.0 | – | –
Cc1cn2cc(-c3ccc(Cl)cc3)nc2s1 [Compound Ig] | 44.2 | 1.4 | > 24.9 µg/mL | – | – | 0.0 | 82.4 | 100 | – | – | 5.7 | > 25 | < 4.00
Cc1cn2cc(-c3ccc(I)cc3)nc2s1 [Ih] | 25.7 | 1.3 | > 100 µM and > 34 µg/mL | – | – | 0.0 | 82.5 | 95.4 | – | – | 5.6 | – | –
